Patent publication US5126336A, “Antibiotic C-3 catechol-substituted cephalosporin compounds, compositions and method of use thereof” (Bristol-Myers Squibb Company, priority 1990, dated 1992)
Converted amounts (≈) assume the structure as drawn.

Experiments:
Assay in all cases: MIC, agar dilution
Format in all cases: cell-based
P. cepacia A21213 = details: Burkholderia cepacia, Mueller-Hinton agar pH 7.2, 32° C., 18 hr, 10^6 cells/ml
Protocol: (§1) Minimum inhibitory concentrations (MICs) of the present series of cephalosporins were determined against 32 strains of test organisms by two-fold serial agar dilution method in Mueller-Hinton agar. Geometric means of MICs were calculated against six groups of the test organisms which are classified as follows and summarized in Table 1.
(§2) Medium; MuellerHinton agar (pH = 7.2)
(§3) Incubation temperature: 32° C., 18 hr
(§4) Inoculum size; 10^6 cells/ml

S. marcescens IPM-16 = details: Serratia marcescens, IPM16, Mueller-Hinton agar pH 7.2, 32° C., 18 hr, 10^6 cells/ml
Protocol: as §1, §2, §3, §4

P. rettgeri IPM-14 = details: Providencia rettgeri, IPM14, Mueller-Hinton agar pH 7.2, 32° C., 18 hr, 10^6 cells/ml
Protocol: as §1, §2, §3, §4

S. aureus IPM-24 (MRSA) = details: Staphylococcus aureus, Mueller-Hinton agar pH 7.2, 32° C., 18 hr, 10^6 cells/ml
Protocol: as §1, §2, §3, §4

E. cloacae IPM-12 = details: Enterobacter cloacae, IPM12, Mueller-Hinton agar pH 7.2, 32° C., 18 hr, 10^6 cells/ml
Protocol: as §1, §2, §3, §4

X. maltophilia GN 12873 = details: Stenotrophomonas maltophilia, GN12873, Mueller-Hinton agar pH 7.2, 32° C., 18 hr, 10^6 cells/ml
Protocol: as §1, §2, §3, §4

P. cepacia No. 651 = details: Burkholderia cepacia, Mueller-Hinton agar pH 7.2, 32° C., 18 hr, 10^6 cells/ml
Protocol: as §1, §2, §3, §4

K. pneumoniae PCI 602 = details: Klebsiella pneumoniae, PCI602, Mueller-Hinton agar pH 7.2, 32° C., 18 hr, 10^6 cells/ml
Protocol: as §1, §2, §3, §4

C. freundii GN 7391 = details: Citrobacter freundii, GN7391, Mueller-Hinton agar pH 7.2, 32° C., 18 hr, 10^6 cells/ml
Protocol: as §1, §2, §3, §4

C. terrigena IFO 12685 = details: Mueller-Hinton agar pH 7.2, 32° C., 18 hr, 10^6 cells/ml
Protocol: as §1, §2, §3, §4

P. mirabilis IFO-2849 = details: Proteus mirabilis, IFO2849, Mueller-Hinton agar pH 7.2, 32° C., 18 hr, 10^6 cells/ml
Protocol: as §1, §2, §3, §4

M. morgani 1510/9 = details: Mueller-Hinton agar pH 7.2, 32° C., 18 hr, 10^6 cells/ml
Protocol: as §1, §2, §3, §4

S. marcescens IPM-15 = details: Serratia marcescens, IPM15, Mueller-Hinton agar pH 7.2, 32° C., 18 hr, 10^6 cells/ml
Protocol: as §1, §2, §3, §4

P. aeruginosa A20599 = details: Pseudomonas aeruginosa, Mueller-Hinton agar pH 7.2, 32° C., 18 hr, 10^6 cells/ml
Protocol: as §1, §2, §3, §4

B. subtilis PCI 219 = details: Bacillus subtilis, PCI219, Mueller-Hinton agar pH 7.2, 32° C., 18 hr, 10^6 cells/ml
Protocol: as §1, §2, §3, §4

E. faecium A24817 = details: Enterococcus faecium, Mueller-Hinton agar pH 7.2, 32° C., 18 hr, 10^6 cells/ml
Protocol: as §1, §2, §3, §4

P. vulgaris IPM-13 = details: Proteus vulgaris, IPM13, Mueller-Hinton agar pH 7.2, 32° C., 18 hr, 10^6 cells/ml
Protocol: as §1, §2, §3, §4

E. faecalis A9808 = details: Enterococcus faecalis, Mueller-Hinton agar pH 7.2, 32° C., 18 hr, 10^6 cells/ml
Protocol: as §1, §2, §3, §4

S. epidermidis 11-1230 = details: Staphylococcus epidermidis, 111230, Mueller-Hinton agar pH 7.2, 32° C., 18 hr, 10^6 cells/ml
Protocol: as §1, §2, §3, §4

P. aeruginosa IPM-9 = details: Pseudomonas aeruginosa, IPM9, Mueller-Hinton agar pH 7.2, 32° C., 18 hr, 10^6 cells/ml
Protocol: as §1, §2, §3, §4

E. coli 255 = details: Escherichia coli, Mueller-Hinton agar pH 7.2, 32° C., 18 hr, 10^6 cells/ml
Protocol: as §1, §2, §3, §4

P. aeruginosa KKA 19 = details: Pseudomonas aeruginosa, KKA19, Mueller-Hinton agar pH 7.2, 32° C., 18 hr, 10^6 cells/ml
Protocol: as §1, §2, §3, §4

S. aureus 4-1015 (MRSA) = details: Staphylococcus aureus, Mueller-Hinton agar pH 7.2, 32° C., 18 hr, 10^6 cells/ml
Protocol: as §1, §2, §3, §4

M. luteus 1001 = details: Micrococcus luteus, Mueller-Hinton agar pH 7.2, 32° C., 18 hr, 10^6 cells/ml
Protocol: as §1, §2, §3, §4

S. aureus 209P = details: Staphylococcus aureus; S. aureus 209P; Mueller-Hinton agar pH 7.2; 32° C., 18 hr; 10^6 cells/ml; read-out: MIC
Protocol: as §1, §2, §3, §4

X. maltophilia No. 661 = details: Stenotrophomonas maltophilia, Mueller-Hinton agar pH 7.2, 32° C., 18 hr, 10^6 cells/ml
Protocol: as §1, §2, §3, §4

P. aeruginosa IPM-8 = details: Pseudomonas aeruginosa, IPM8, Mueller-Hinton agar pH 7.2, 32° C., 18 hr, 10^6 cells/ml
Protocol: as §1, §2, §3, §4

M. morgani 1510 = details: Mueller-Hinton agar pH 7.2, 32° C., 18 hr, 10^6 cells/ml
Protocol: as §1, §2, §3, §4

S. aureus Smith = details: Staphylococcus aureus; S. aureus Smith; Mueller-Hinton agar pH 7.2; 32° C., 18 hr; 10^6 cells/ml; read-out: MIC
Protocol: as §1
(§5) In vivo antibacterial activity was determined against three bacterial infections (S. aureus Smith, E. coli Juhl and P. aeruginosa A9843A) by intramuscular administration to mice just after the bacterial challenge. PD50 values are summarized in Table 3 in comparsion with the MIC values against the corresponding organisms.
as §2, §3, §4

E. coli Juhl A15119 = details: Escherichia coli, JUHLA15119; E. coli Juhl A15119; Mueller-Hinton agar pH 7.2; 32° C., 18 hr; 10^6 cells/ml; read-out: MIC
Protocol: as §1, §5, §2, §3, §4

P. aeruginosa A9843A = details: Pseudomonas aeruginosa, A9843A, 18 h, pH 7.2
Protocol: as §1, §5, §2, §3, §4

Compound: Nc1nc(/C(=N/O)C(=O)NC2C(=O)N3C(C(=O)[O-])=C(/C=C/C[n+]4cc5cc(O)c(O)cc5cn4)CS[C@H]23)cs1 (stereo partly shown) [Ik, 7-[(Z)-2-(2-Aminothiazol-4-yl)-2-hydroxyimino-acetamido]-3-[(E)-3-(6,7-dihydroxyphthalazin-2-io)-1-propen--1-yl]-3-cephem-4-carboxylate]
- MIC (P. cepacia A21213): > 100 µg/mL
- MIC (S. marcescens IPM-16): > 100 µg/mL
- MIC (P. rettgeri IPM-14): 1.6 µg/mL (≈ 2.81 µM)
- MIC (S. aureus IPM-24 (MRSA)): 12.5 µg/mL (≈ 21.9 µM)
- MIC (E. cloacae IPM-12): > 100 µg/mL
- MIC (X. maltophilia GN 12873): > 100 µg/mL
- MIC (P. cepacia No. 651): 100 µg/mL (≈ 176 µM)
- MIC (K. pneumoniae PCI 602): 0.05 µg/mL (≈ 0.0878 µM)
- MIC (C. freundii GN 7391): > 100 µg/mL
- MIC (C. terrigena IFO 12685): 0.8 µg/mL (≈ 1.4 µM)
- MIC (P. mirabilis IFO-2849): 0.2 µg/mL (≈ 0.351 µM)
- MIC (M. morgani 1510/9): 0.1 µg/mL (≈ 0.176 µM)
- MIC (S. marcescens IPM-15): > 100 µg/mL
- MIC (P. aeruginosa A20599): > 100 µg/mL
- MIC (B. subtilis PCI 219): 0.4 µg/mL (≈ 0.702 µM)
- MIC (E. faecium A24817): 50 µg/mL (≈ 87.8 µM)
- MIC (P. vulgaris IPM-13): > 100 µg/mL
- MIC (E. faecalis A9808): 6.3 µg/mL (≈ 11.1 µM)
- MIC (S. epidermidis 11-1230): 1.6 µg/mL (≈ 2.81 µM)
- MIC (P. aeruginosa IPM-9): > 100 µg/mL
- MIC (E. coli 255): 0.2 µg/mL (≈ 0.351 µM)
- MIC (P. aeruginosa KKA 19): > 100 µg/mL
- MIC (S. aureus 4-1015 (MRSA)): 3.1 µg/mL (≈ 5.44 µM)
- MIC (M. luteus 1001): 0.4 µg/mL (≈ 0.702 µM)
- MIC (S. aureus 209P): 0.8 µg/mL (≈ 1.4 µM)
- MIC (X. maltophilia No. 661): > 100 µg/mL
- MIC (P. aeruginosa IPM-8): > 100 µg/mL
- MIC (M. morgani 1510): 6.3 µg/mL (≈ 11.1 µM)
- MIC (S. aureus Smith): 0.8 µg/mL (≈ 1.4 µM)
- MIC (E. coli Juhl A15119): 0.4 µg/mL (≈ 0.702 µM)
- MIC (P. aeruginosa A9843A): > 100 µg/mL
